In brackets after ≈: the same amount, converted by molar mass. Several values for one entry are separate records, joined by “and”; a condition that tells them apart may be missing. Equal values may be shown once. Read-outs that look alike come from different tables or passages of the source.
Tests used:
[1] = tested on: J774A.1 (ATCC TIB-67) cells; assay: Cytotoxicity against macrophage cells (resazurin); assay type: cell-based, mice; conditions: for IC50: Mus musculus
[2] = tested on: MRC-5 (ATCC CCL-171) cells
[3] = tested on: Salmonella Typhimurium (ATCC 14028); assay: Activity spectrum, microdilution; assay type: cell-based; conditions: 24 h, absorbance 600 nm
[4] = tested on: Mycobacterium tuberculosis H37Rv (ATCC 27294), replicating; assay: MIC90 against replicating M. tuberculosis (resazurin microtiter assay, REMA); assay type: cell-based; conditions: 7 days; for MIC90: Mycobacterium tuberculosis, 168 h
[5] = tested on: Mycobacterium smegmatis mc2155 (ATCC 700084); assay: MIC90 against M. smegmatis (resazurin); assay type: cell-based; conditions: for Spectrum activity, M. smegmatis: 2 days, resazurin
[6] = tested on: Pseudomonas aeruginosa (ATCC 13388); assay: Activity spectrum, microdilution; assay type: cell-based; conditions: 24 h, absorbance 600 nm
[7] = tested on: Staphylococcus aureus (ATCC 6538); assay: Activity spectrum, microdilution; assay type: cell-based; conditions: 24 h, absorbance 600 nm
[8] = tested on: Escherichia coli (ATCC 11775); assay: Activity spectrum, microdilution; assay type: cell-based; conditions: 24 h, absorbance 600 nm
[9] = tested on: non-replicating (NRP) M. tuberculosis; assay: LORA, MIC90 against non-replicating M. tuberculosis; assay type: cell-based, Mycobacterium tuberculosis
Description: The LORA method was used to determine the MIC90 of compounds against latent/non-replicating (NRP) mycobacteria. According to Wayne and Sohaskey (2001) [18], under a low-oxygen atmosphere, NRP mycobacteria, containing the plasmid pFCA-ABCDE that encodes a luminescent protein in aerated environments, were plated in a 96-well plate with 100 mL of compounds in a range of 0.39 to 100 μg/mL.

[10] = tested on: intramacrophagic M. tuberculosis H37Rv; assay: Intramacrophagic activity (J774A.1 macrophages infected with M. tuberculosis H37Rv, CFU count); assay type: cell-based, Mycobacterium tuberculosis; conditions: 5× MIC (6.15 μM), 3 days of exposure
[11] = tested on: MRC-5 (ATCC CCL-171) cells; assay: cells; conditions: Homo sapiens
M. tuberculosis = assay: Time-kill curve; assay type: cell-based, Mycobacterium tuberculosis; conditions: MIC and 2× MIC, 15 days
[12] = tested on: latent tuberculosis infection (LTBI); conditions: cited from earlier work; for Efficacy in preventing progression to active tuberculosis infection: LTBI patients, monotherapy, ref Huaman et al. (2019) [28]
[13] = J774A.1 ATCC TIB-67, 24 h, J774A.1, 24 h
[14] = J774A.1 ATCC TIB-67, 48 h, J774A.1, 48 h
[15] = J774A.1 ATCC TIB-67, 72 h, J774A.1, 72 h
[16] = Mycobacterium tuberculosis, LORA, low-oxygen

Row | SMILES | IC50 [1, 13] [µg/mL] | IC50 [1, 14] [µg/mL] | IC50 [1, 15] [µg/mL] | Spectrum activity, S. typhimurium [3] [µg/mL] | MIC90 [4] | Spectrum activity, M. smegmatis [5] [µg/mL] | Spectrum activity, P. aeruginosa [6] [µg/mL] | Spectrum activity, S. aureus [7] [µg/mL] | Spectrum activity, E. coli [8] [µg/mL] | MIC90 [9, 16] | IC50 ([11]; MRC5, 24 h) [µg/mL] | IC50 ([11]; MRC5, 48 h) [µg/mL] | IC50 ([11]; MRC5, 72 h) [µg/mL] | death profile in time-kill curve (bactericidal = 3 log10 CFU/mL decrease) (M. tuberculosis) | Efficacy in preventing progression to active tuberculosis infection [12] [%] | other results
1 | CC1=NN(C(=O)c2ccncc2)C(O)(c2ccccc2)C1 (stereo not drawn) [Hydrazone 14] | > 100 | 83.3 ± 28.9 (≈ 296 µM) | 81.8 ± 31.5 (≈ 291 µM) | >100 | 1.23 µM and 0.35 µg/mL | >25.0 | >100 | >100 | >100 | 6.31 µM and 1.77 µg/mL | > 100 | > 100 | > 100 |  |  | IS (selectivity index) ([1]; IC50/MIC90, J774A.1, 24 h): >289.02; IS (selectivity index) ([1]; IC50/MIC90, J774A.1, 48 h): 240.88; IS (selectivity index) ([1]; IC50/MIC90, J774A.1, 72 h): 236.46; cytotoxicity [2]: no detectable cytotoxicity; IS (selectivity index) ([2]; IC50/MIC90, MRC-5, 24 h): >289.02; IS (selectivity index) ([2]; IC50/MIC90, MRC-5, 48 h): >289.02; IS (selectivity index) ([2]; IC50/MIC90, MRC-5, 72 h): >289.02; MIC90 Replicating [4]: 1.23 ± 0.53 µM (≈ 0.346 µg/mL); growth inhibition of M. smegmatis [5]: unable to inhibit the mycobacteria growth; MIC90 Non-Replicating ([9]; LORA, low-oxygen): 6.31 ± 5.72 µM (≈ 1.78 µg/mL); intramacrophagic inhibition (log reduction vs untreated) [10]: 0.5 log10 CFU/mL
2 | NNC(=O)c1ccncc1 [Isoniazid] | > 100 | > 100 | > 100 |  | 0.44 µM and 0.06 µg/mL |  |  |  |  | > 300 µM and > 45 µg/mL | > 100 | > 100 | > 100 | bacteriostatic | 90 | IS (selectivity index) [1]: >1666.66; IS (selectivity index) [2]: >1666.66; TB activation after LTBI treatment ([12]; share of cases, INH monotherapy): 10%; inhibition of non-replicating bacteria ([9]; LORA assay): non-inhibition; MIC90 ([9]; LORA, low-oxygen): >328.13 µM
3 | CNC(C)C1CCC(N)C(OC2C(N)CC(N)C(OC3OCC(C)(O)C(NC)C3O)C2O)O1 (stereo not drawn) [Gentamicin] |  |  |  | 1.16 ± 0.38 |  |  | 2.02 ± 0.66 | 3.97 ± 2.35 | 5.07 ± 0.14 |  |  |  |  |  |  | 
4 | CO[C@H]1/C=C/O[C@@]2(C)Oc3c(C)c(O)c4c(O)c(c(/C=N/N5CCN(C)CC5)c(O)c4c3C2=O)NC(=O)/C(C)=C\C=C\[C@H](C)[C@H](O)[C@@H](C)[C@@H](O)[C@@H](C)[C@H](OC(C)=O)[C@@H]1C [Rifampicin] |  |  |  |  | 0.05 µM and 0.04 µg/mL | 2.4 ± 1.5 |  |  |  | < 0.36 µM and < 0.3 µg/mL |  |  |  | bacteriostatic | ~90 | 

From article PMC9598318, “Latent Tuberculosis: A Promising New Compound to Treat Non-Replicating and Intramacrophagic Mycobacteria” (Biomedicines, 2022)
